ChEMBL document CHEMBL1201862, “PubChem BioAssay data set” (2004)
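Interpolation was linear, between the two tested concentrations surrounding the appropriate level; five concentrations were tested over 48 hours in 96-well plates. GI50 is the concentration that inhibits growth by half.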 Calls of active or inactive are those of the source. Cut-off read from the data, not from the text of the source: active = GI50 up to about 1.1 µM and inactive = higher.

How the values were obtained:
Experiment in all cases: growth of human tumour cells (NCI), 48 h
[1] = tested on: Hs-578T
[2] = tested on: SK-MEL-5
[3] = tested on: EKVX
[4] = tested on: SF-295
[5] = tested on: OVCAR-8
[6] = tested on: SR
[7] = tested on: HCT-116
[8] = tested on: T47D
[9] = tested on: TK-10
[10] = tested on: DU-145
[11] = tested on: U-251
[12] = tested on: HT-29
[13] = tested on: CCRF-CEM
[14] = tested on: HL-60
[15] = tested on: MDA-MB-435
[16] = tested on: CAKI-1
[17] = tested on: SK-OV-3
[18] = tested on: K562
[19] = tested on: HCT-15
[20] = tested on: SK-MEL-2
[21] = tested on: UACC-257
[22] = tested on: NCI-H460
[23] = tested on: HCC 2998
[24] = tested on: IGROV-1
[25] = tested on: BT-549
[26] = tested on: SK-MEL-28
[27] = tested on: A498
[28] = tested on: MOLT-4
[29] = tested on: M14
[30] = tested on: SNB-75
[31] = tested on: SF-268
[32] = tested on: MDA-MB-231
[33] = tested on: OVCAR-5
[34] = tested on: NCI-H522
[35] = tested on: A549
[36] = tested on: NCI-H23
[37] = tested on: SW-620
[38] = tested on: NCI-H226
[39] = tested on: HOP-92
[40] = tested on: UACC-62
[41] = tested on: HOP-62
[42] = tested on: LOX IMVI
[43] = tested on: OVCAR-3
[44] = tested on: UO-31
[45] = tested on: SNB-19
[46] = tested on: COLO 205
[47] = tested on: RXF 393
[48] = tested on: 786-0
[49] = tested on: Malme-3M
[50] = tested on: OVCAR-4
[51] = tested on: RPMI-8226
[52] = tested on: ACHN
[53] = tested on: PC-3
[54] = tested on: NCI/ADR-RES
[55] = tested on: KM12

Measured: GI50

OC1CN2CCS[C@H]2C(O)C1O (stereo not given in full)
> 100 µM: [19]
inactive: [1] > 100 µM | [2] > 100 µM | [3] > 100 µM | [4] > 100 µM | [5] > 100 µM | [6] > 100 µM | [7] > 100 µM | [8] > 100 µM | [9] > 100 µM | [10] > 100 µM | [11] > 100 µM | [12] > 100 µM | [13] > 100 µM | [14] > 100 µM | [15] > 100 µM | [16] > 100 µM | [17] > 100 µM | [18] > 100 µM | [20] > 100 µM | [21] > 100 µM | [22] > 100 µM | [23] > 100 µM | [24] > 100 µM | [25] > 100 µM | [26] > 100 µM | [27] > 100 µM | [28] > 100 µM | [29] > 100 µM | [30] > 100 µM | [31] > 100 µM | [32] > 100 µM | [33] > 100 µM | [34] > 100 µM | [35] > 100 µM | [36] > 100 µM | [37] > 100 µM | [38] > 100 µM | [39] > 100 µM | [40] > 100 µM | [41] > 100 µM | [42] > 100 µM | [43] > 100 µM | [44] > 100 µM | [45] > 100 µM | [46] > 100 µM | [47] > 100 µM | [48] > 100 µM | [49] > 100 µM | [50] > 100 µM | [51] > 100 µM | [52] > 100 µM | [53] > 100 µM | [54] > 100 µM | [55] > 100 µM
